Several values for one entry are separate records, joined by “and”; a condition that tells them apart may be missing. Equal values may be shown once.
Molecular target: T1, Delta-Opioid Receptor (Mus musculus, UniProt P32300)
T1 construct: host or cells: NG108-15
Test: Delta-opioid receptor binding: inhibition of specific binding of 3H NID to intact NG108-15 cells
Settings: for EC50: EC50 (M), competition with 3H NID, intact NG108-15 cells, 2 hr at 37° C.
Procedure: To do so, 1 to 4 serial dilutions of test compounds and naltrindole (NID, Sigma) are prepared to generate solutions with concentrations ranging from 10^−3 to 10^−14 M in 50 mM Tris buffer, pH 7.5. ^3H NID (American Radiolabeled Chemicals, St. Louis, Mo., specific activity 49 dpm/10^−15 mol) is prepared in Tris at a concentration of 10^−9 M. Cultured cells of the neruablastoma/glioblastoma hybrid cell line NG108-15 (American Type Culture Collection) are briefly trypsinized, washed with media, and resuspended at 6×10^5 cells/mL. 20 μL of test compound or NID solution and 20 μL of ^3H NID are added to each of 96 wells of a Multiscreen assay system (Millipore) MAFB. 160 μL of cell suspension in Dulbecco's MEM+HAT with 10% Fetal Bovine Serum are added. The reactions are allowed to equilibrate 2 hr at 37° C., vacuum filtered, washed 2× with 200 μL ice cold Tris buffer and air dried. The filters are punched out of the plate into scintillation vials and mixed on a shaker overnight before counting.
Data is analyzed by the Prism software package (GraphPad Software, Inc., San Diego, Calif.) using a non-linear curve fit routine for one site competitive binding.

T1 sequence (P32300 whole entry): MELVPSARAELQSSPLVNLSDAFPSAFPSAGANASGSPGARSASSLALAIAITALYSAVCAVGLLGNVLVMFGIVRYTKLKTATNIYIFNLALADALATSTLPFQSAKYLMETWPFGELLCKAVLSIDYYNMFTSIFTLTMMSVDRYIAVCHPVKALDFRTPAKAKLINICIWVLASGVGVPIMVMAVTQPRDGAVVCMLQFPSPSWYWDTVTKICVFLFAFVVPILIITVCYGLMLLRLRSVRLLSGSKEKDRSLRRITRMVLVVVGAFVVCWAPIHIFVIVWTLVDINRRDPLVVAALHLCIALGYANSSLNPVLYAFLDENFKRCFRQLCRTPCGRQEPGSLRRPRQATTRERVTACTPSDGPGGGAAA

Structure (SMILES)	EC50	Test/Control (ratio of EC50 of test compound to EC50 of NID in the same test)	fold lower in affinity than NID (summary of Table 1)
Oc1ccc2c3c1O[C@H]1c4[nH]c5ccccc5c4C[C@@]4(O)[C@@H](C2)N(CC2CC2)CC[C@]314 [NID, naltrindole, reference compound]	4.2e-09 M and 1.8e-09 M	–	–
O=C(O)CN1CCN(CC(=O)O)CCN(CC(=O)O)C(Cc2ccc(NC(=O)CCCCCNC(=O)Cn3c4c(c5ccccc53)CC3(O)C5Cc6ccc(O)c7c6C3(CCN5CC3CC3)C4O7)cc2)CN(CC(=O)O)CC1 (stereo not shown) [NID-DOTA]	1.2e-08 M	2.8	about 3 fold

Reference: patent publication US6359111B1, “Opioid receptor targeting” (NeoRx Corporation, priority 1998, dated 2002)
